Assay results taken from patent US20240132492A1, “PYRIDOPYRIMIDINE-BASED COMPOUND AND APPLICATION THEREOF” (JINAN UNIVERSITY, priority 2021, published 2024).

Assays:
Assay type in all cases: cell-based
AKT1 = molecular target: T1, AKT1 (Homo sapiens, UniProt P31749); experiment: Western Blot, degradation of AKT1 protein in H1975-OR cells; settings: 1000 nM, 24 hours, maximum degradation rate
T1 construct: AKT1, AKT2, and AKT3 proteins in H1975-OR cells; endogenous in cells; host or cells: H1975-OR (osimertinib-resistant H1975)
T1 sequence (P31749 whole entry): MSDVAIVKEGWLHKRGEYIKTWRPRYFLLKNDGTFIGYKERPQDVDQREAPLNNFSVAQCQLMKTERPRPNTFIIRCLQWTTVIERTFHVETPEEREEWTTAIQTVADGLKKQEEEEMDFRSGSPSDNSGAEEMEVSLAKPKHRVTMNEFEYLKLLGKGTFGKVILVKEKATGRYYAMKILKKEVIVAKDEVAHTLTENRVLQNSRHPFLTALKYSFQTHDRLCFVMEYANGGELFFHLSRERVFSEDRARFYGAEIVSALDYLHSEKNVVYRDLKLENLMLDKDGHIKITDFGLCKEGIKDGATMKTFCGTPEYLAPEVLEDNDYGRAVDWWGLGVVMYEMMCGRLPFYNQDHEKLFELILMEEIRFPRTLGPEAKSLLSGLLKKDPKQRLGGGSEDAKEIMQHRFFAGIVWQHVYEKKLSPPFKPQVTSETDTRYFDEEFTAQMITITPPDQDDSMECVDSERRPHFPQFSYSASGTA
Method: (§1) Cell line: Non-small cell lung cancer H1975-OR cell line, which is an Osimertinib resistant H1975 cell line, and could be obtained through low dose gradual addition culture. Specific method: H1975 cells were spread in a 10 cm culture dish at a convergence rate of 60-70%, added 50 nM of Osimertinib to the culture medium. After the cell state stabilized, the concentration of Osimertinib was gradually double to 3 μM.
(§2) Conventional Western Blot (immunoblotting) was used for detection, as follows: a certain number of H1975-OR cells were planted on a 96 well plate, adherent cultured in an incubator overnight, and added a certain concentration of compound to act for 24 hours. 1×SDS lysis buffer with protease and phosphatase inhibitors was used to lyse cells. Cell lysates were separated by SDS-PAGE and transferred to PVDF membrane. Then, at room temperature, the PCDF membrane was taken out and immersed in a sealing solution (5% BSA TBS solution containing 0.5% Tween-20) for sealing treatment for 1 hour, and then incubated with a specific primary antibody at 4° C. overnight. The imprints were washed with TBST and incubated with horseradish peroxidase (HRP) labeled secondary antibodies at room temperature for 2 hours. Finally, ECL plus fluorescence detection reagent (Thermo Scientific, Waltham, MA) was used for protein development, and the Amersham Imager 600 system (GE, America) was used for photography. The detection results were processed using ImageJ software to obtain the grayscale value G (Density).

AKT2 = molecular target: T2, AKT2 (Homo sapiens, UniProt P31751); experiment: Western Blot, degradation of AKT2 protein in H1975-OR cells; settings: 1000 nM, 24 hours, maximum degradation rate
T2 construct: AKT1, AKT2, and AKT3 proteins in H1975-OR cells; endogenous in cells; host or cells: H1975-OR (osimertinib-resistant H1975)
T2 sequence (P31751 whole entry): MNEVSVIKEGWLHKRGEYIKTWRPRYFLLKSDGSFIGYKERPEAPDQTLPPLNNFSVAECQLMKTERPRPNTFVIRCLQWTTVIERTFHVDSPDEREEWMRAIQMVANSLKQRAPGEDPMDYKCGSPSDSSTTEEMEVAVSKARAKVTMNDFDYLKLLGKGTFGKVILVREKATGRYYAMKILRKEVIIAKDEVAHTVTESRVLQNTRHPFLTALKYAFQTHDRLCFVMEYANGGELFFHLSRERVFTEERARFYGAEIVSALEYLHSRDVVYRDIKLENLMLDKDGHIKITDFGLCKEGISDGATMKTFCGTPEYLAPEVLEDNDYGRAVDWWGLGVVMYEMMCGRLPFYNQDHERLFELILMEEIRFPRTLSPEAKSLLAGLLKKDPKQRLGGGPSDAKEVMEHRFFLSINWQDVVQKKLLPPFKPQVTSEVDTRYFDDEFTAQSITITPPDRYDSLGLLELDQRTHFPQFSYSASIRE
Method: as §1, §2

H1975 = experiment: CCK-8 tumor cell proliferation, H1975; settings: Homo sapiens, NCI-H1975, H1975 cells, 72 hours
Method: (§3) Tumor cells (see Table 2 to Table 5) were inoculated in 96-well plates in complete culture medium (2000-3000 cells/well). After overnight incubation, the compounds with different concentrations (0.000508 μM-10 μM) were used to treat the cells separately for 72 hours. CCK-8 (Cell Counting Kit 8, Dojindo Laboratories, Kumamoto, Japan) experiment was used to evaluate cell proliferation. GraphPad Prism 5.0 software (La Jolla, CA) was used to calculate the half-maximal inhibitory concentration (IC50) values by fitting the concentration response curve. Each IC50 value was represented as an average value±SD.

H1975OR = experiment: CCK-8 tumor cell proliferation, H1975OR; settings: H1975OR cells (Osimertinib resistant), 72 hours
Method: as §1, §3

AKT3 = AKT3 (Homo sapiens, UniProt Q9Y243); experiment: Western Blot, degradation of AKT3 protein in H1975-OR cells; design: endogenous in cells; host or cells: H1975-OR (osimertinib-resistant H1975); settings: 1000 nM, 24 hours, maximum degradation rate
AKT3, sequence (Q9Y243 whole entry): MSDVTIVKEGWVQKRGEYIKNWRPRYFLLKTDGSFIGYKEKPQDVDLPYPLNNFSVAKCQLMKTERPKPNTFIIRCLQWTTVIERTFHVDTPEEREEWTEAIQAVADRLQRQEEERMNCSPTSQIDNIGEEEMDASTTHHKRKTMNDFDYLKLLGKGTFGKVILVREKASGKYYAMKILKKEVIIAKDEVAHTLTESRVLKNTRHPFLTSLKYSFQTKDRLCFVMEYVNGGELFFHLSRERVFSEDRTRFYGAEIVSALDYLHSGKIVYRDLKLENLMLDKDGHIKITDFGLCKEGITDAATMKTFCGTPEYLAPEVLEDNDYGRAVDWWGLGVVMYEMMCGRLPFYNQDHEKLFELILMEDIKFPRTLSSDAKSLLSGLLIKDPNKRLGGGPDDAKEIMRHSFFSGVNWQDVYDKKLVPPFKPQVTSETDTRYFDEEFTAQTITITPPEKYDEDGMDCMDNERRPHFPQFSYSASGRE
Method: as §1, §2

Dmax at 1 µM (AKT1) | Dmax at 1 µM (AKT2) | IC50 (H1975) | IC50 (H1975OR) | Dmax at 1 µM (AKT3) | SMILES
30.3% | 24.7% | 0.121 ± 0.0449 µM | 0.0939 ± 0.004 µM | 38.9% | COc1cc(N2CCN(CCCCCCCCNC(=O)C[C@]34CC5C[C@@](C)(C[C@@](C)(C5)C3)C4)CC2)ccc1Nc1ncc2c(C)cc(=O)n(-c3cccc(NC(=O)C4CC4)c3)c2n1 [ZX-HYT-59, N-(3-(2-((4-(4-(8-(2-((1S, 3R, 5S, 7R)-3,5-dimethyladamantan-1-yl)acetamido)octyl)piperazin-1-yl)-2-methoxyphenyl)amino)-5-methyl-7-oxypyridino [2,3-d]pyrimidin-8 (7H)-yl)phenyl) cyclopropanilamide]
14.2% | 31.5% | 0.0738 ± 0.0456 µM | 0.103 ± 0.0592 µM | 15.9% | COc1cc(N2CCN(CCCCCCCCNC(=O)C3C[C@H]4CC[C@@H]3C4)CC2)ccc1Nc1ncc2c(C)cc(=O)n(-c3cccc(NC(=O)C4CC4)c3)c2n1 (stereo partly shown) [ZX-HYT-61]
0% | 30.6% | 0.145 ± 0.101 µM | 0.217 ± 0.0367 µM | 55.5% | COc1cc(N2CCN(CCCCCCCCN)CC2)ccc1Nc1ncc2c(C)cc(=O)n(-c3cccc(NC(=O)C4CC4)c3)c2n1 [ZX-HYT-31]
22.4% | 23.6% | 5.39 ± 0.293 µM | 8.09 ± 0.432 µM | 40.1% | COc1cc(N2CCN(CCCCCCCCCCCCNC(=O)CC34CC5CC(CC(C5)C3)C4)CC2)ccc1Nc1ncc2c(C)cc(=O)n(-c3cccc(NCC4CNC4)c3)c2n1 [ZX-HYT-44, 2-((3R, 5R, 7R)-adamantan-1-yl)-N-(12-(4-(4-((8-(3-((azacyclobutane-3-ylmethyl)amino)phenyl)-5-methyl-7-oxy-7,8-dihydropyridino [2,3-d]pyrimidin-2-yl)amino)-3-methoxyphenyl)piperazin-1-yl)dodecanyl) acetamide]
42.2% | 39.1% | 2.59 ± 0.2 µM | 0.32 ± 0.04 µM | 43.4% | COc1cc(N2CCN(CCCCCCCCNC(=O)C34CC5CC(CC(C5)C3)C4)CC2)ccc1Nc1ncc2c(C)cc(=O)n(-c3cccc(NC(=O)C4CC4)c3)c2n1 [ZX-HYT-35, (3R,5R,7R)—N-(8-(4-(4-((8-(3-(cyclopropaneformamide)phenyl)-5-methyl-7-oxy-7,8-dihydropyridino [2,3-d-dipyrimidin-2-yl)amino)-3-methoxyphenyl)piperazin-1-yl)octyl)adamantan-1-carboxylamide]

Continued, compound first:

SMILES | Dmax at 1 µM (AKT1) | Dmax at 1 µM (AKT2) | IC50 (H1975) | IC50 (H1975OR) | Dmax at 1 µM (AKT3)
COc1cc(N2CCN(CCCCCCCCCCCCNC(=O)CC34CC5CC(CC(C5)C3)C4)CC2)ccc1Nc1ncc2c(C)cc(=O)n(-c3cccc(N(C)C)c3)c2n1 [ZX-HYT-43, 2-((3R, 5R, 7R)-adamantan-1-yl)-N-(12-(4-(4-((8-(3-(dimethylamino)phenyl)-5-methyl-7-oxy-7,8-dihydropyridino [2,3-d]pyrimidin-2-yl)amino)-3-methoxyphenyl)piperazin-1-yl)dodecyl) acetamide] | 57.5% | 30.5% | 0.257 ± 0.0423 µM | 0.172 ± 0.0204 µM | 37.9%
COc1cc(N2CCN(CCCCCCCCCCCCNC(=O)CC34CC5CC(CC(C5)C3)C4)CC2)ccc1Nc1ncc2c(C)cc(=O)n([C@H]3CCCN(C(=O)C4CC4)C3)c2n1 [ZX-HYT-22] | 0% | 0% | 0.014 µM | 0.00682 µM | 25%
COc1cc(OCCOCCCCCCCCCCCCNC(=O)CC23CC4CC(CC(C4)C2)C3)ccc1Nc1ncc2c(C)cc(=O)n(-c3cccc(NC(=O)C4CC4)c3)c2n1 [ZX-HYT-27, N-(3-(2-(4-(2-((12-(2-(((3R, 5R, 7R)-adamantan-1-yl)acetylamino)dodecyl)oxy)ethoxy)-2-methoxyphenyl)amino)-5-methyl-7-oxypyridino [2,3-d]pyrimidin-8 (7H)-yl)phenyl) cyclopropaneformamide] | 0% | 30.2% | 7.84 ± 1.35 µM | 1.67 ± 0.69 µM | 76.3%
